Data set [1] deals with T1, Rhodobacter sphaeroides tyrosine ammonia lyase (RsTAL), wild type (Cereibacter sphaeroides, UniProt Q3IWB0).
T1 construct: octahistidine (His8), thrombin-cleavable (N, cleaved yes); made in house; host or cells: E. coli BL21(DE3)
T1 sequence (Q3IWB0 1-523): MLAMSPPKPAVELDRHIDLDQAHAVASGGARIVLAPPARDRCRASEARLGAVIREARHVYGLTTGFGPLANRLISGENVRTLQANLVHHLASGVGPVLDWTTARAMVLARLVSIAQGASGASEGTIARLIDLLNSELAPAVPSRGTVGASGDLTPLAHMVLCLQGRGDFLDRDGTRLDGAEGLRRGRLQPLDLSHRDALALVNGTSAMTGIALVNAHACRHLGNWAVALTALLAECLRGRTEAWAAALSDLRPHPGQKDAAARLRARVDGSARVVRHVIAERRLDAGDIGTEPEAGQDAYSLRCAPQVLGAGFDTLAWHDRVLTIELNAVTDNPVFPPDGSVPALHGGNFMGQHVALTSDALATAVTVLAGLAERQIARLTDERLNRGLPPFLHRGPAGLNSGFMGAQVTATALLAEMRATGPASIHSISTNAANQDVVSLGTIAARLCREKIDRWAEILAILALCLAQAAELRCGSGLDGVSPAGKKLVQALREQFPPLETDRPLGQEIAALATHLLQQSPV
Kind of data set: Ammonia lyase steady-state kinetics, wild type RsTAL. Particulars: wt RsTAL. The class given is biochemical. The method, then:
(§1) TAL activity was measured spectrophotometrically by monitoring the formation of a conjugated aryl-acid product. The conversion of L-Tyr to p-coumarate was followed at 310 nm and L-Phe to cinnamate at 280 nm. The assay mixture (total volume 0.5 ml) contained 0.1 M Tris HCl (pH 8.5), and for each fixed amount of TAL, eight different initial concentrations of amino acid substrate. After pre-incubation of the enzyme at 37° C. for 2 min, reactions were initiated by the addition of substrate, and formation of product was monitored for 5 min. For wild type RsTAL, activity was assayed with 7.5 μg protein and initial L-Tyr concentrations between 0.01 and 2.4 mM, and PAL activity was assayed with 30 μg protein and initial L-Phe concentrations between 3.2 and 51.2 mM. For the RsTAL H89F mutant, PAL activity was assayed with 10 μg protein and initial L-Phe concentrations between 0.05 and 5.2 mM. Each series of assays were performed in triplicate, and a Hanes plot was used for the estimation of steady-state kinetic constants.

For data set [2], the system named is ZmPAL (Z. mays phenylalanine ammonia lyase). The conditions noted are these: cited from earlier work.
Data set [3] deals with SeTAL (Saccharothrix espanaensis tyrosine ammonia lyase). The conditions noted are these: cited from earlier work.
In data set [4] the test system is SmPAL (Streptomyces maritimus phenylalanine ammonia lyase). The conditions noted are these: cited from earlier work.
For data set [5], the system named is PlPAL (Photorhabdus luminescens phenylalanine ammonia lyase). Particulars: cited from earlier work.
Data set [6] relates to PcPAL (Petroselinum crispum phenylalanine ammonia lyase). The conditions noted are these: cited from earlier work.
Data set [7] concerns RcTAL (Rhodobacter capsulatus tyrosine ammonia lyase). The conditions noted are these: cited from earlier work.
For data set [8], the target named is T2, Rhodobacter sphaeroides tyrosine ammonia lyase (RsTAL) variant H89F (His89Phe) (Cereibacter sphaeroides, UniProt Q3IWB0, H89F).
T2 sequence (Q3IWB0 1-523 H89F): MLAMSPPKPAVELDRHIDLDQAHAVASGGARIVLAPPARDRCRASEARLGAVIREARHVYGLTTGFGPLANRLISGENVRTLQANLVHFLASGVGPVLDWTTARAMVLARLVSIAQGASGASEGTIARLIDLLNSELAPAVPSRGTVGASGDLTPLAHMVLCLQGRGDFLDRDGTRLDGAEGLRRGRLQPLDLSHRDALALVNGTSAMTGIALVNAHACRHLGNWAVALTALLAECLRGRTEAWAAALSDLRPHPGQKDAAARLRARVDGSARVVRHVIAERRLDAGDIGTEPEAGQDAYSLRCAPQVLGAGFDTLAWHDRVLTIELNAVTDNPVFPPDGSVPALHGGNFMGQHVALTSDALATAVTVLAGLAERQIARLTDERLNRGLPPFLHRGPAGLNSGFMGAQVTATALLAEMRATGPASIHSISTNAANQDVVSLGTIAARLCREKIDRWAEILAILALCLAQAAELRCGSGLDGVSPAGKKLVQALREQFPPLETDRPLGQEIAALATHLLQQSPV
As to the kind of experiment: Ammonia lyase steady-state kinetics, H89F RsTAL.

Another data set has as its target T3, RsTAL (Cereibacter sphaeroides, UniProt Q3IWB0).
T3 construct: His8 (octahistidine), thrombin-cleavable (N, cleaved yes); made in house; host or cells: E. coli BL21(DE3)
T3 sequence (Q3IWB0 1-523): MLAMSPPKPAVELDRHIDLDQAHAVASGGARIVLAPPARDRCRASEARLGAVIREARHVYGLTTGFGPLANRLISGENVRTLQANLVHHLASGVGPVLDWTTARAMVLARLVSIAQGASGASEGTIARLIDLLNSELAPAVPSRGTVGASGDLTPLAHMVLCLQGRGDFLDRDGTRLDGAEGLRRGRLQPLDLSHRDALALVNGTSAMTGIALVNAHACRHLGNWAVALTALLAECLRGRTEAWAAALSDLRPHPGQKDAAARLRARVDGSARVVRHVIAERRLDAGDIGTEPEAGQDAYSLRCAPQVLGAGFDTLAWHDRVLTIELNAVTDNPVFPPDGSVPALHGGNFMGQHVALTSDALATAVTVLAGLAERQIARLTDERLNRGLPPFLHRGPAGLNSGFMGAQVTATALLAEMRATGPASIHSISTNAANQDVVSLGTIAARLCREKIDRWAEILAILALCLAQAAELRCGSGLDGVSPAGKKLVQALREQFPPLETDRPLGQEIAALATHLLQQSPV
As to the kind of experiment: Crystal soaking experiments of RsTAL with ligands. Particulars: wild type RsTAL crystals soaked with ligand. It is filed as binding, Rhodobacter sphaeroides. Here is the method: Monoclinic crystals of RsTAL (space group […]) were grown from a 1:1 mixture of protein solution (20 mg/ml in 12.5 mM Tris-HCl, pH 7.5, 50 mM NaCl) and a reservoir solution (0.1 M MOPSO—Na^+, pH 7.0, 7% (w/v) polyethylene glycol 8000, 0.3 M ammonium acetate, 2 mM dithiothreitol, 35 mM cyclohexylbutanoyl-N-hydroxyethylglucamide) using vapor diffusion against reservoir solutions at 4° C. Crystal growth typically occurred over a period of one to three weeks and was expedited through microseeding. […] Crystals of RsTAL in complex with small molecule ligands were produced by soaking crystals for 24-48 hrs in reservoir solutions supplemented with 10-20 mM coumaric acid, caffeic acid, cinnamic acid or AIP.

Substrate in data set [9]: N[C@@H](Cc1ccccc1)C(=O)O
Kind of data set: purified protein, by the assay type. The conditions noted are these: other: H89F RsTAL, pH 8.5, 37° C.

Substrate in data set [10]: N[C@@H](Cc1ccccc1)C(=O)O
Kind of data set: Ammonia lyase steady-state kinetics, wild type RsTAL. It is filed as biochemical, Rhodobacter sphaeroides. Particulars: other: wt RsTAL, pH 8.5, 37° C. Here is the method: as §1

Substrate in data set [11]: N[C@@H](Cc1ccc(O)cc1)C(=O)O
Described as above. The class given is biochemical, Rhodobacter sphaeroides. The conditions noted are these: other: wt RsTAL, pH 8.5, 37° C. The method, then: as §1

Data set [12] is described as follows: PAL activity: spectrophotometric steady-state kinetics, L-Phe to cinnamate. The class given is biochemical. The conditions noted are these: substrate L-Phe. The method, then: as §1

Broadly, the Km is the substrate concentration at which the rate is half of its maximum. The term kcat denotes the maximal rate divided by the concentration of active sites. In general, kcat/Km refers to the second-order rate constant that governs catalysis at low substrate concentration.

Take `N[C@@H](Cc1ccc(O)c(O)c1)C(=O)O` [L-DOPA, L-3,4-dihydroxyphenylalanine]: the “activity with L-DOPA” value in [1] (deamination) is reported as “significant activity”.
As to `N[C@@H](Cc1ccccc1)C(=O)O` [L-Phe], the Km was 270 µM in [2]; 2860 µM in [3]; 23 µM in data set [4]; 320 µM in data set [5]; 17.2 µM in [6]; 1280 µM in data set [7]. The kcat is 10 s⁻¹ in data set [2]; 0.0038 s⁻¹ in data set [3]; 0.0048 s⁻¹ in [4]; 0.8 s⁻¹ in data set [5]; 22 s⁻¹ in data set [6]; 15.1 s⁻¹ in data set [7]. For the same molecule, the kcat in data set [8] (pH 8.5, 37° C.) amounted to 8.15 s⁻¹.
On to `N[C@@H](Cc1ccc(O)cc1)C(=O)O` [L-Tyr], for which the “Km better for L-Tyr as compared to L-Phe” value in [1] (L-Tyr vs L-Phe) is recorded as 150 fold. Moreover, the kcat is 4.32 s⁻¹ in [1] (pH 8.5, 37° C.); 0.9 s⁻¹ in data set [2]; 0.015 s⁻¹ in data set [3]; 0.3 s⁻¹ in [6]; 27.7 s⁻¹ in [7]. The Km in data set [2] was 19 µM; in [3], 15.5 µM; in data set [6] it was 2500 µM; in [7], 15.6 µM. In [8], the “activity with L-Tyr” value was “lacks activity”.
Consider `O=C(O)C=Cc1ccccc1` [cinnamic acid], for which, on RsTAL, the “binding observed in RsTAL crystals (in words)” value is on record as “no significant binding”.

B1: Rhodobacter sphaeroides tyrosine ammonia lyase (RsTAL) variant H89F (His89Phe) (Cereibacter sphaeroides 2.4.1; H89F) (protein)
chain: MLAMSPPKPAVELDRHIDLDQAHAVASGGARIVLAPPARDRCRASEARLGAVIREARHVYGLTTGFGPLANRLISGENVRTLQANLVHFLASGVGPVLDWTTARAMVLARLVSIAQGASGASEGTIARLIDLLNSELAPAVPSRGTVGASGDLTPLAHMVLCLQGRGDFLDRDGTRLDGAEGLRRGRLQPLDLSHRDALALVNGTSAMTGIALVNAHACRHLGNWAVALTALLAECLRGRTEAWAAALSDLRPHPGQKDAAARLRARVDGSARVVRHVIAERRLDAGDIGTEPEAGQDAYSLRCAPQVLGAGFDTLAWHDRVLTIELNAVTDNPVFPPDGSVPALHGGNFMGQHVALTSDALATAVTVLAGLAERQIARLTDERLNRGLPPFLHRGPAGLNSGFMGAQVTATALLAEMRATGPASIHSISTNAANQDVVSLGTIAARLCREKIDRWAEILAILALCLAQAAELRCGSGLDGVSPAGKKLVQALREQFPPLETDRPLGQEIAALATHLLQQSPV
B1: the Km in data set [9] was 434 µM.

B2: Rhodobacter sphaeroides tyrosine ammonia lyase (RsTAL), wild type (Cereibacter sphaeroides 2.4.1) (protein)
chain: MLAMSPPKPAVELDRHIDLDQAHAVASGGARIVLAPPARDRCRASEARLGAVIREARHVYGLTTGFGPLANRLISGENVRTLQANLVHHLASGVGPVLDWTTARAMVLARLVSIAQGASGASEGTIARLIDLLNSELAPAVPSRGTVGASGDLTPLAHMVLCLQGRGDFLDRDGTRLDGAEGLRRGRLQPLDLSHRDALALVNGTSAMTGIALVNAHACRHLGNWAVALTALLAECLRGRTEAWAAALSDLRPHPGQKDAAARLRARVDGSARVVRHVIAERRLDAGDIGTEPEAGQDAYSLRCAPQVLGAGFDTLAWHDRVLTIELNAVTDNPVFPPDGSVPALHGGNFMGQHVALTSDALATAVTVLAGLAERQIARLTDERLNRGLPPFLHRGPAGLNSGFMGAQVTATALLAEMRATGPASIHSISTNAANQDVVSLGTIAARLCREKIDRWAEILAILALCLAQAAELRCGSGLDGVSPAGKKLVQALREQFPPLETDRPLGQEIAALATHLLQQSPV
notes: octahistidine (His8), thrombin-cleavable (N, cleaved yes); made in house; host or cells: E. coli BL21(DE3)
Turning to B2, in data set [10], the Km was found to be 11400 µM, the kcat came to 13.1 s⁻¹ and the kcat/Km came out at 1100 M⁻¹ s⁻¹. The Km in data set [11] was 74.2 µM.

B3: H89F RsTAL: engineered RsTAL variant with the single amino acid substitution H89F (His 89 replaced by Phe) (protein)
chain: MLAMSPPKPAVELDRHIDLDQAHAVASGGARIVLAPPARDRCRASEARLGAVIREARHVYGLTTGFGPLANRLISGENVRTLQANLVHFLASGVGPVLDWTTARAMVLARLVSIAQGASGASEGTIARLIDLLNSELAPAVPSRGTVGASGDLTPLAHMVLCLQGRGDFLDRDGTRLDGAEGLRRGRLQPLDLSHRDALALVNGTSAMTGIALVNAHACRHLGNWAVALTALLAECLRGRTEAWAAALSDLRPHPGQKDAAARLRARVDGSARVVRHVIAERRLDAGDIGTEPEAGQDAYSLRCAPQVLGAGFDTLAWHDRVLTIELNAVTDNPVFPPDGSVPALHGGNFMGQHVALTSDALATAVTVLAGLAERQIARLTDERLNRGLPPFLHRGPAGLNSGFMGAQVTATALLAEMRATGPASIHSISTNAANQDVVSLGTIAARLCREKIDRWAEILAILALCLAQAAELRCGSGLDGVSPAGKKLVQALREQFPPLETDRPLGQEIAALATHLLQQSPV
modifications: H89F mutant of Rhodobacter sphaeroides tyrosine ammonia lyase
Consider B3, for which the “increase in kcat/Km in comparison to wild type RsTAL” value in data set [12] was determined as 17 fold.

These data come from patent publication US20090011400A1, “Substrate switched ammonia lyases and mutases” (The Salk Institute for Biological Studies and The Regents …, priority 2006, published 2009).
